Test results reported in the NIST ThermoML archive (doi:10.1016/j.jct.2008.10.002).

Experiments:
[1] = excess molar enthalpy (molar enthalpy of mixing); xn = mol fraction of the nth substance listed; conditions: 303.15 K, 101.3 kPa, Liquid
[2] = molar heat capacity at constant pressure; xn = mol fraction of the nth substance listed; conditions: 101.3 kPa, Liquid, Small sample (50 mg) DSC
[3] = xn = mol fraction of the nth substance listed; conditions: 101.3 kPa, Liquid, Vibrating tube method

CCn1cc[n+](C)c1.O=S(=O)([O-])C(F)(F)F [1-ethyl-3-methylimidazolium trifluoromethanesulfonate] + O
[1]
Conditions	excess molar enthalpy [kcal/mol]
x1 = 0.1012	0.116
x1 = 0.1943	0.19
x1 = 0.2959	0.237
x1 = 0.4031	0.256
x1 = 0.4921	0.253
x1 = 0.5929	0.23
x1 = 0.6997	0.182
x1 = 0.7805	0.144
x1 = 0.844	0.107

Conditions	mass density, [3] [kg/m3]	molar heat capacity at constant pressure, [2] [J/K/mol]
293.15 K, x1 = 0.0186	1063.6	83.2
293.15 K, x1 = 0.0522	1142.6	94.2
293.15 K, x1 = 0.0995	1208.9	108.1
293.15 K, x1 = 0.2037	1282.4	138
293.15 K, x1 = 0.2952	1315.7	163.5
293.15 K, x1 = 0.3868	1336.6	188.5
293.15 K, x1 = 0.4761	1350.7	213.2
293.15 K, x1 = 0.5771	1362.4	240.9
293.15 K, x1 = 0.6617	1370	264
293.15 K, x1 = 0.8398	1381.8	314.4
293.15 K, x1 = 0.8646	1383.1	321.6
298.15 K, x1 = 0.0186	1061.7	83.1
298.15 K, x1 = 0.0522	1139.6	94.3
298.15 K, x1 = 0.0995	1205.3	108.6
298.15 K, x1 = 0.2037	1278.3	138.9
298.15 K, x1 = 0.2952	1311.5	164.5
298.15 K, x1 = 0.3868	1332.4	189.7
298.15 K, x1 = 0.4761	1346.4	214.5
298.15 K, x1 = 0.5771	1358.1	242.3
298.15 K, x1 = 0.6617	1365.7	265.6
298.15 K, x1 = 0.8398	1377.5	316.3
298.15 K, x1 = 0.8646	1378.8	323.5
303.15 K, x1 = 0.0186	1059.5	83.2
303.15 K, x1 = 0.0522	1136.5	94.6
303.15 K, x1 = 0.0995	1201.6	109.2
303.15 K, x1 = 0.2037	1274.2	139.9
303.15 K, x1 = 0.2952	1307.2	165.6
303.15 K, x1 = 0.3868	1328.1	190.9
303.15 K, x1 = 0.4761	1342.2	215.8
303.15 K, x1 = 0.5771	1353.9	243.8
303.15 K, x1 = 0.6617	1361.5	267.3
303.15 K, x1 = 0.8398	1373.3	318.2
303.15 K, x1 = 0.8646	1374.6	325.5
308.15 K, x1 = 0.0186	1057.2	83.1
308.15 K, x1 = 0.0522	1133.3	94.7
308.15 K, x1 = 0.0995	1197.8	109.6
308.15 K, x1 = 0.2037	1270	140.7
308.15 K, x1 = 0.2952	1303	166.6
308.15 K, x1 = 0.3868	1323.9	192.1
308.15 K, x1 = 0.4761	1337.9	217.1
308.15 K, x1 = 0.5771	1349.7	245.3
308.15 K, x1 = 0.6617	1357.3	269
308.15 K, x1 = 0.8398	1369.1	320.2
308.15 K, x1 = 0.8646	1370.4	327.5
313.15 K, x1 = 0.0186	1054.7	83.2
313.15 K, x1 = 0.0522	1130	95
313.15 K, x1 = 0.0995	1193.9	110.1
313.15 K, x1 = 0.2037	1265.8	141.5
313.15 K, x1 = 0.2952	1298.7	167.7
313.15 K, x1 = 0.3868	1319.6	193.3
313.15 K, x1 = 0.4761	1333.7	218.5
313.15 K, x1 = 0.5771	1345.4	246.9
313.15 K, x1 = 0.6617	1353.1	270.8
313.15 K, x1 = 0.8398	1364.9	322.1
313.15 K, x1 = 0.8646	1366.3	329.6
318.15 K, x1 = 0.0186	1052.1	83.4
318.15 K, x1 = 0.0522	1126.7	95.4
318.15 K, x1 = 0.0995	1190.1	110.6
318.15 K, x1 = 0.2037	1261.6	142.4
318.15 K, x1 = 0.2952	1294.4	168.8
318.15 K, x1 = 0.3868	1315.3	194.6
318.15 K, x1 = 0.4761	1329.4	220
318.15 K, x1 = 0.5771	1341.2	248.5
318.15 K, x1 = 0.6617	1348.9	272.6
318.15 K, x1 = 0.8398	1360.8	324.2
318.15 K, x1 = 0.8646	1362.1	331.7
